We go through one compound from patent US12019075B2, “Zwitterionic nanoparticles” (FRAUNHOFER-GESELLSCHAFT ZUR FOERDERUNG DER ANGEWANDTEN …, priority 2017, dated 2024).

This data set concerns A549 cells. As to the kind of experiment: Toxicity test with Cellomics Array Scan. The data set is classed as cell-based, human. The method, then:
The toxicity of the zwitterionic QDQRs-17a and QDQRs-17b was tested using the Cellomics Array Scan. For the toxicity tests, A549 cells were plated on a 96-well plate and incubated with QDQR solutions in a concentration range of 25 to 500 nM. Cadmium chloride, which was used in a concentration range from 25 to 1,000 μM, was used as the positive control. The increase in the cadmium chloride concentration by a factor of 1,000 is due to the fact that a single QDQR of the tested samples contains about 8,200 cadmium atoms. Assuming that the totality of the nanoparticles dissolve and release the cadmium contained in them, the lowest concentration of 25 nM QDQRs used would correspond to a concentration of 205 μM cadmium chloride. After an incubation period of 16 hours, the cells were blended with a staining solution consisting of the cell nucleus dye Hoechst 33342 and the mitochondrial dye MitoTracker® Deep Red FM and then fixed with formaldehyde solution. The 96-well plates were then read out with the Cellomics Array Scan. A software was used to automatically determine the parameters number of cells, cell nucleus intensity and cell nucleus size using the intensity of the dye by Hoechst, and the transmembrane potential of the mitochondria on the basis of the mitochondrial dye. In addition, microscopic images of the cells were taken to control the number of cells and cell morphology.
For the toxicity tests, A549 cells were plated in culture medium on a 96-well plate (10,000 cells per well) and incubated overnight. When the medium had been sucked off, the samples to be tested (diluted with culture medium, 100 μL per well) were applied in different concentrations and incubated for 16 hours. The samples were then removed and the cells were mixed with 100 μL staining solution (final concentration: 75 nM MitoTracker® Deep Red and […] Hoechst 33342 in DMEM with 10% FCS) and incubated for a further 30 minutes. […] After 20 minutes, the fixing solution was sucked off and washed twice with DPBS before the samples were measured on the Cellomics Array Scan.

Turning to `[Cl][Cd][Cl]` [cadmium chloride], under “16 hours incubation”, the “morphological changes of the cells or cell nuclei (microscopic images)” value was “the number of cells decreases noticeably and they get globular”. Where the note is “16 hours incubation, tested 25 to 1,000 μM”, the “concentration with toxic effect on the cells” value was at least 100 µM. The “number of cells per well, cell nucleus intensity and cell nucleus size” value (16 hours, 100 μM or more) is listed as “decreases significantly”.
